Experimental data published in the CheMixHub viscosity set.

Assay: xn = mol fraction of the nth substance listed

CCCc1ccccc1 + C1COCCO1
303.15 K, 101.3 kPa
Settings	viscosity [mPa·s]
x2 = 0.1061	0.7763
x2 = 0.1984	0.8007
x2 = 0.2968	0.8298
x2 = 0.399	0.8589
x2 = 0.4945	0.8922
x2 = 0.5985	0.9278
x2 = 0.7003	0.9648
x2 = 0.8026	1.005
x2 = 0.9025	1.045

COc1ccccc1 + CC1COC(=O)O1
viscosity [mPa·s], 101.33 kPa
Settings	x2 = 0.0794	x2 = 0.1323	x2 = 0.2487	x2 = 0.3578	x2 = 0.4971	x2 = 0.5795	x2 = 0.6669	x2 = 0.7278	x2 = 0.835	x2 = 0.9009
293.15 K	1.142	1.199	1.316	1.449	1.64	1.773	1.917	2.031	2.246	2.406
303.15 K	0.971	1.013	1.101	1.212	1.372	1.479	1.591	1.682	1.851	1.978
313.15 K	0.849	0.889	0.972	1.066	1.177	1.26	1.347	1.423	1.569	1.671

C1CCOC1 + CC#N
viscosity [mPa·s], 101 kPa
Settings	x2 = 0.1633	x2 = 0.3052	x2 = 0.4295	x2 = 0.5394	x2 = 0.6372	x2 = 0.7249	x2 = 0.8039	x2 = 0.8754	x2 = 0.9405
298.15 K	0.4419	0.4236	0.4075	0.3932	0.3808	0.3701	0.3611	0.3539	0.3481
308.15 K	0.4066	0.3875	0.3701	0.355	0.3425	0.3321	0.3242	0.3184	0.3145
318.15 K	0.3683	0.3497	0.334	0.3202	0.3089	0.3001	0.2938	0.2901	0.2879

CC1COC(=O)O1 (stereo unspecified) + CC#N
viscosity [mPa·s], 101.3 kPa
Settings	x1 = 0.0418	x1 = 0.0892	x1 = 0.1438	x1 = 0.2071	x1 = 0.2815	x1 = 0.3701	x1 = 0.4776	x1 = 0.6104	x1 = 0.7791
298.15 K	0.383	0.423	0.479	0.551	0.642	0.778	0.968	1.248	1.675
303.15 K	0.363	0.403	0.454	0.521	0.605	0.731	0.906	1.161	1.535
308.15 K	0.347	0.384	0.432	0.494	0.575	0.693	0.846	1.078	1.42
313.15 K	0.331	0.367	0.411	0.469	0.543	0.654	0.802	1.054	1.31
318.15 K	0.316	0.353	0.397	0.455	0.509	0.625	0.76	0.965	1.22

Cc1ccccc1 + CC#N
Settings	viscosity [mPa·s]
298.15 K, 101.3 kPa, x1 = 0.04717	0.348
298.15 K, 101.3 kPa, x1 = 0.1002	0.35
298.15 K, 101.3 kPa, x1 = 0.1603	0.365
298.15 K, 101.3 kPa, x1 = 0.229	0.38
298.15 K, 101.3 kPa, x1 = 0.3082	0.403
298.15 K, 101.3 kPa, x1 = 0.4006	0.427
298.15 K, 101.3 kPa, x1 = 0.5097	0.457
298.15 K, 101.3 kPa, x1 = 0.6406	0.487
298.15 K, 101.3 kPa, x1 = 0.8004	0.527
298.17 K, 100 kPa, x2 = 0.5	0.4526
298.19 K, 100 kPa, x2 = 0.25	0.5085
303 K, 100 kPa, x2 = 0.126	0.5031
303 K, 100 kPa, x2 = 0.2324	0.4911
303 K, 100 kPa, x2 = 0.3293	0.4787
303 K, 100 kPa, x2 = 0.4233	0.4725
303 K, 100 kPa, x2 = 0.5023	0.4621
303 K, 100 kPa, x2 = 0.6588	0.4355
303 K, 100 kPa, x2 = 0.7316	0.4231
303 K, 100 kPa, x2 = 0.876	0.4007
308 K, 100 kPa, x2 = 0.126	0.4825
308 K, 100 kPa, x2 = 0.2324	0.4755
308 K, 100 kPa, x2 = 0.3293	0.4625
308 K, 100 kPa, x2 = 0.4233	0.4525
308 K, 100 kPa, x2 = 0.5023	0.4436
308 K, 100 kPa, x2 = 0.6588	0.4166
308 K, 100 kPa, x2 = 0.7316	0.4038
308 K, 100 kPa, x2 = 0.876	0.3715
308.15 K, 101 kPa, x1 = 0.1038	0.3334
308.15 K, 101 kPa, x1 = 0.2993	0.3692
308.15 K, 101 kPa, x1 = 0.3885	0.3887
308.15 K, 101 kPa, x1 = 0.5986	0.424
308.15 K, 101 kPa, x1 = 0.6907	0.4457
308.15 K, 101 kPa, x1 = 0.7946	0.4617
308.15 K, 101 kPa, x1 = 0.8925	0.4789
308.15 K, 101.3 kPa, x1 = 0.04717	0.309
308.15 K, 101.3 kPa, x1 = 0.1002	0.309
308.15 K, 101.3 kPa, x1 = 0.1603	0.33
308.15 K, 101.3 kPa, x1 = 0.3082	0.375
308.15 K, 101.3 kPa, x1 = 0.4006	0.389
308.15 K, 101.3 kPa, x1 = 0.5097	0.421
308.15 K, 101.3 kPa, x1 = 0.6406	0.434
308.15 K, 101.3 kPa, x1 = 0.8004	0.45
313 K, 100 kPa, x2 = 0.126	0.4655
313 K, 100 kPa, x2 = 0.2324	0.4551
313 K, 100 kPa, x2 = 0.3293	0.4425
313 K, 100 kPa, x2 = 0.4233	0.4311
313 K, 100 kPa, x2 = 0.5023	0.4179
313 K, 100 kPa, x2 = 0.6588	0.4006
313 K, 100 kPa, x2 = 0.7316	0.3878
313 K, 100 kPa, x2 = 0.876	0.3512
323.05 K, 100 kPa, x2 = 0.75	0.308
323.08 K, 100 kPa, x2 = 0.25	0.3879
323.09 K, 100 kPa, x2 = 0.5	0.3497

CC(=O)C1CCOC1=O (stereo unspecified) + CC(=O)C1CC1
101.3 kPa
Settings	viscosity [mPa·s]
303.15 K, x2 = 0.0998	3.195
313.15 K, x2 = 0.3004	1.945
